Format in all cases: in vivo
One assay deals with Eimeria tenella. Nature of the assay: Cage experiment on coccidiosis/chicks, E. tenella readout. As to conditions: third symbol of cell.
In the next assay the test system is Eimeria maxima. Kind of assay: Cage experiment on coccidiosis/chicks, E. maxima readout. The note with it: second symbol of cell.
A further assay concerns Eimeria acervulina. Nature of the assay: Cage experiment on coccidiosis/chicks, E. acervulina readout. The note with it: first symbol of cell.
Note: key: 2=full action; 1=slight action; 0=inactive; D=death.

As for `COC(=O)N(C)Cn1c(C(F)(F)F)nc2c(Br)cc3c(c21)OC(F)(F)C(F)(F)O3` [Ex. 2], the “Efficacy against Eimeria tenella” value in the assay on Eimeria tenella (Table 4, dose 2.5 ppm) was 1; in the assay on Eimeria tenella (Table 4, dose 5 ppm), 2; in the assay on Eimeria tenella (Table 4, dose 10 ppm) it was “D D D”. Besides, the “Efficacy against Eimeria maxima” value with Eimeria maxima (Table 4, dose 2.5 ppm) is on record as 2; in the assay with Eimeria maxima (Table 4, dose 5 ppm), 2; with Eimeria maxima (Table 4, dose 10 ppm), “D D D”. The “Efficacy against Eimeria acervulina” value in the assay with Eimeria acervulina (Table 4, dose 2.5 ppm) is 1; in the assay with Eimeria acervulina (Table 4, dose 5 ppm) it was 2; with Eimeria acervulina (Table 4, dose 10 ppm) it was “D D D”.

As for `COC(=O)N(C)Cn1c(C(F)(F)F)nc2c(Cl)cc3c(c21)OC(F)(F)C(F)(F)O3` [Ex. 3], the “Efficacy against Eimeria tenella” value with Eimeria tenella (Table 4, dose 2.5 ppm) is given as 1; in the assay on Eimeria tenella (Table 4, dose 5 ppm), 2; in the assay on Eimeria tenella (Table 4, dose 10 ppm), 2. Moreover, the “Efficacy against Eimeria maxima” value in the assay on Eimeria maxima (Table 4, dose 2.5 ppm) is listed as 2; with Eimeria maxima (Table 4, dose 5 ppm) it was 2; in the assay on Eimeria maxima (Table 4, dose 10 ppm), 2. The “Efficacy against Eimeria acervulina” value in the assay with Eimeria acervulina (Table 4, dose 2.5 ppm) came to 0; in the assay with Eimeria acervulina (Table 4, dose 5 ppm), 2; in the assay on Eimeria acervulina (Table 4, dose 10 ppm), 2.

As for `CCN(Cn1c(C(F)(F)F)nc2c(Cl)cc3c(c21)OC(F)(F)C(F)(F)O3)C(=O)OC` [Ex. 4], the “Efficacy against Eimeria tenella” value with Eimeria tenella (Table 4, dose 2.5 ppm) was 1; with Eimeria tenella (Table 4, dose 5 ppm), 1; in the assay on Eimeria tenella (Table 4, dose 10 ppm), 1. Besides, the “Efficacy against Eimeria maxima” value was found to be 2 in the assay with Eimeria maxima (Table 4, dose 2.5 ppm); 1 in the assay with Eimeria maxima (Table 4, dose 5 ppm); 1 with Eimeria maxima (Table 4, dose 10 ppm). For the same compound, the “Efficacy against Eimeria acervulina” value in the assay on Eimeria acervulina (Table 4, dose 2.5 ppm) amounted to 1; in the assay on Eimeria acervulina (Table 4, dose 5 ppm), 1; in the assay with Eimeria acervulina (Table 4, dose 10 ppm), 1.

Consider `CCCCN(Cn1c(C(F)(F)F)nc2c(Br)cc3c(c21)OC(F)(F)C(F)(F)O3)C(=O)OCC` [Ex. 5], for which the “Efficacy against Eimeria tenella” value in the assay on Eimeria tenella (Table 4, dose 2.5 ppm) was 1; in the assay on Eimeria tenella (Table 4, dose 5 ppm), 1; in the assay on Eimeria tenella (Table 4, dose 10 ppm) it was 2. The “Efficacy against Eimeria maxima” value with Eimeria maxima (Table 4, dose 2.5 ppm) came to 2; in the assay with Eimeria maxima (Table 4, dose 5 ppm), 1; with Eimeria maxima (Table 4, dose 10 ppm), 1. Also, the “Efficacy against Eimeria acervulina” value is listed as 1 with Eimeria acervulina (Table 4, dose 2.5 ppm); 1 in the assay on Eimeria acervulina (Table 4, dose 5 ppm); 1 in the assay on Eimeria acervulina (Table 4, dose 10 ppm).

As to `CCOC(=O)N(Cn1c(C(F)(F)F)nc2c(Br)cc3c(c21)OC(F)(F)C(F)(F)O3)C(C)C` [Ex. 6], the “Efficacy against Eimeria tenella” value in the assay on Eimeria tenella (Table 4, dose 2.5 ppm) was 1; with Eimeria tenella (Table 4, dose 5 ppm), 2; in the assay on Eimeria tenella (Table 4, dose 10 ppm) it was 2. For the same compound, the “Efficacy against Eimeria maxima” value in the assay on Eimeria maxima (Table 4, dose 2.5 ppm) came to 1; with Eimeria maxima (Table 4, dose 5 ppm), 2; with Eimeria maxima (Table 4, dose 10 ppm) it was 2. Also, the “Efficacy against Eimeria acervulina” value in the assay with Eimeria acervulina (Table 4, dose 2.5 ppm) is 1; with Eimeria acervulina (Table 4, dose 5 ppm), 2; in the assay with Eimeria acervulina (Table 4, dose 10 ppm), 2.

On to `CCOC(=O)N(Cn1c(C(F)(F)F)nc2c(Cl)cc3c(c21)OC(F)(F)C(F)(F)O3)C(C)C` [Ex. 7], for which the “Efficacy against Eimeria tenella” value is recorded as 2 in the assay with Eimeria tenella (Table 4, dose 2.5 ppm); 2 with Eimeria tenella (Table 4, dose 5 ppm); 1 in the assay on Eimeria tenella (Table 4, dose 10 ppm). Further, the “Efficacy against Eimeria maxima” value with Eimeria maxima (Table 4, dose 2.5 ppm) is listed as 1; in the assay with Eimeria maxima (Table 4, dose 5 ppm), 2; in the assay on Eimeria maxima (Table 4, dose 10 ppm), 2. The “Efficacy against Eimeria acervulina” value with Eimeria acervulina (Table 4, dose 2.5 ppm) came to 2; in the assay with Eimeria acervulina (Table 4, dose 5 ppm), 2; in the assay with Eimeria acervulina (Table 4, dose 10 ppm), 2.

For the compound `COC(=O)N(Cn1c(C(F)(F)F)nc2c(Cl)cc3c(c21)OC(F)(F)C(F)(F)O3)c1ccccc1C` [Ex. 8], the “Efficacy against Eimeria tenella” value with Eimeria tenella (Table 4, dose 2.5 ppm) was 0; in the assay on Eimeria tenella (Table 4, dose 5 ppm), 1; with Eimeria tenella (Table 4, dose 10 ppm), 2. In addition, the “Efficacy against Eimeria maxima” value in the assay with Eimeria maxima (Table 4, dose 2.5 ppm) is on record as 0; in the assay with Eimeria maxima (Table 4, dose 5 ppm), 1; with Eimeria maxima (Table 4, dose 10 ppm), 2. Also, the “Efficacy against Eimeria acervulina” value is 0 in the assay on Eimeria acervulina (Table 4, dose 2.5 ppm); 0 with Eimeria acervulina (Table 4, dose 5 ppm); 2 in the assay on Eimeria acervulina (Table 4, dose 10 ppm).

With `CCOC(=O)N(Cn1c(C(F)(F)F)nc2c(Cl)cc3c(c21)OC(F)(F)C(F)(F)O3)C1CCCCC1` [Ex. 9], the “Efficacy against Eimeria tenella” value in the assay on Eimeria tenella (Table 4, dose 2.5 ppm) is given as 1; in the assay with Eimeria tenella (Table 4, dose 5 ppm) it was 1; in the assay on Eimeria tenella (Table 4, dose 10 ppm), 2. Further, the “Efficacy against Eimeria maxima” value with Eimeria maxima (Table 4, dose 2.5 ppm) came to 1; in the assay on Eimeria maxima (Table 4, dose 5 ppm), 2; in the assay on Eimeria maxima (Table 4, dose 10 ppm), 2. Besides, the “Efficacy against Eimeria acervulina” value was found to be 0 in the assay with Eimeria acervulina (Table 4, dose 2.5 ppm); 2 with Eimeria acervulina (Table 4, dose 5 ppm); 2 in the assay on Eimeria acervulina (Table 4, dose 10 ppm).
